Holding throughout (type): functional
Test [1] relates to Klebsiella pneumoniae. Description: Antibacterial activity against Klebsiella pneumoniae assessed as growth inhibition at 1.56 to 25 ug/mL.
Test [2] has as its system Aspergillus flavus. Description: Antifungal activity against Aspergillus flavus NCIM 524 assessed as growth inhibition at 1.56 to 25 ug/mL.
Test [3] deals with Trichophyton mentagrophytes. As to the kind of experiment: Antifungal activity against Trichophyton mentagrophytes assessed as growth inhibition at 1.56 to 25 ug/mL.
The test system of test [4] is Escherichia coli. Description: Antibacterial activity against Escherichia coli ATCC 25922 assessed as growth inhibition at 1.56 to 25 ug/mL.
In test [5] the test system is Klebsiella pneumoniae. Description: Antibacterial activity against Klebsiella pneumoniae assessed as growth inhibition by serial plate dilution method.
In test [6] the test system is Trichophyton mentagrophytes. As to the kind of experiment: Antifungal activity against Trichophyton mentagrophytes assessed as growth inhibition by serial plate dilution method.
The test system of test [7] is Radical scavenging activity. Description: Antioxidant activity assessed as inhibition of DPPH radical generation at 4000 ug/mL after 15 min by UV-Vis spectrophotometric analysis relative to control. Conditions: at 4000 µg/mL. (Loss of DPPH colour is used to gauge radical scavenging.)
The test system of test [8] is Talaromyces marneffei. As to the kind of experiment: Antifungal activity against Talaromyces marneffei assessed as growth inhibition at 1.56 to 25 ug/mL.
The subject of test [9] is Talaromyces marneffei. Description: Antifungal activity against Talaromyces marneffei assessed as growth inhibition by serial plate dilution method.
Test [10] relates to Escherichia coli. As to the kind of experiment: microbe, parasite or virus in culture. Conditions: ATCC 25922.
Description: Antibacterial activity against Escherichia coli ATCC 25922 assessed as growth inhibition by serial plate dilution method
Test [11] deals with Aspergillus flavus. Description: Antifungal activity against Aspergillus flavus NCIM 524 assessed as growth inhibition by serial plate dilution method.
The subject of test [12] is Pseudomonas aeruginosa. As to the kind of experiment: Antibacterial activity against Pseudomonas aeruginosa ATCC 27853 assessed as growth inhibition at 1.56 to 25 ug/mL.
Test [13] relates to Staphylococcus aureus. As to the kind of experiment: Antibacterial activity against Staphylococcus aureus ATCC 25923 assessed as growth inhibition by serial plate dilution method.
For test [14], the system named is Aspergillus fumigatus. Description: Antifungal activity against Aspergillus fumigatus NCIM 902 assessed as growth inhibition by serial plate dilution method.
The subject of test [15] is Pseudomonas aeruginosa. As to the kind of experiment: Antibacterial activity against Pseudomonas aeruginosa ATCC 27853 assessed as growth inhibition by serial plate dilution method.
The subject of test [16] is Staphylococcus aureus. Description: Antibacterial activity against Staphylococcus aureus ATCC 25923 assessed as growth inhibition at 1.56 to 25 ug/mL.
Test [17] concerns Aspergillus fumigatus. Description: Antifungal activity against Aspergillus fumigatus NCIM 902 assessed as growth inhibition at 1.56 to 25 ug/mL.

Each structure is given as a SMILES string. Values after ≈ are worked out from the molar mass of the structure shown.

The term inhibition denotes how much of the control response was suppressed. In the case of `O=[N+]([O-])c1ccc(-c2csc(N3N=C(c4ccccc4)CC3c3ccc(-c4ccc(Cl)cc4)o3)n2)cc1` (stereo unspecified), the “diameter of the inhibition zone (DIZ)” value (in the test on Klebsiella pneumoniae [1]; in the test with Aspergillus flavus [2]; in test [3]; in the test with Escherichia coli [4]; in the test with Talaromyces marneffei [8]; with Pseudomonas aeruginosa [12]) was 11 mm each time. Moreover, the “diameter of the inhibition zone (DIZ)” value in the test on Staphylococcus aureus [16] and with Aspergillus fumigatus [17] was 11 mm throughout. Moreover, the MIC (with Klebsiella pneumoniae [5]; in test [6]; in the test with Talaromyces marneffei [9]; against Escherichia coli [10]; in the test on Aspergillus flavus [11]; in the test on Staphylococcus aureus [13]) was 12.5 µg/mL (≈ 23.7 µM) each time. The MIC with Aspergillus fumigatus [14] and in the test with Pseudomonas aeruginosa [15] was 12.5 µg/mL (≈ 23.7 µM) each time. Further, the inhibition in test [7] worked out at 45%.

Regarding `CSc1ccc(C2CC(c3ccc(Cl)cc3Cl)=NN2c2nc(-c3ccc([N+](=O)[O-])cc3)cs2)cc1` (stereo unspecified), the “diameter of the inhibition zone (DIZ)” value (in the test with Klebsiella pneumoniae [1]; with Aspergillus flavus [2]; in [3]; with Escherichia coli [4]; in the test with Talaromyces marneffei [8]; in the test on Pseudomonas aeruginosa [12]) was 16 mm throughout. Also, the “diameter of the inhibition zone (DIZ)” value in the test with Staphylococcus aureus [16] and in the test on Aspergillus fumigatus [17] was 16 mm in each case. Further, the MIC (in the test with Klebsiella pneumoniae [5]; in test [6]; with Talaromyces marneffei [9]; in the test with Escherichia coli [10]; with Aspergillus flavus [11]; with Staphylococcus aureus [13]) was 6.25 µg/mL (≈ 11.5 µM) in each case. Besides, the MIC in the test on Aspergillus fumigatus [14] and in the test with Pseudomonas aeruginosa [15] was 6.25 µg/mL (≈ 11.5 µM) in each case. Also, the inhibition in test [7] was found to be 88%.

As for `COc1ccc(C2=NN(c3nc(-c4ccc([N+](=O)[O-])cc4)cs3)C(c3ccc(-c4cc(Cl)c(Cl)cc4Cl)o3)C2)cc1OC` (stereo unspecified), the “diameter of the inhibition zone (DIZ)” value (with Klebsiella pneumoniae [1]; with Aspergillus flavus [2]; in test [3]; with Escherichia coli [4]; in the test on Talaromyces marneffei [8]; in the test with Pseudomonas aeruginosa [12]) was 16 mm throughout. Besides, the “diameter of the inhibition zone (DIZ)” value in the test on Staphylococcus aureus [16] and with Aspergillus fumigatus [17] was 16 mm throughout. The MIC (in the test with Klebsiella pneumoniae [5]; in test [6]; in the test on Talaromyces marneffei [9]; against Escherichia coli [10]; in the test on Aspergillus flavus [11]; in the test on Staphylococcus aureus [13]) was 6.25 µg/mL (≈ 9.53 µM) in each case. Moreover, the MIC with Aspergillus fumigatus [14] and in the test with Pseudomonas aeruginosa [15] was 6.25 µg/mL (≈ 9.53 µM) throughout. For the same compound, in test [7], the inhibition was found to be 57%.

As for `COc1ccc(C2=NN(c3nc(-c4ccc([N+](=O)[O-])cc4)cs3)C(c3ccc(SC)cc3)C2)cc1OC` (stereo unspecified), the diameter of the inhibition zone (DIZ) (in the test with Klebsiella pneumoniae [1]; in the test on Aspergillus flavus [2]; in [3]; in the test with Escherichia coli [4]; in the test with Talaromyces marneffei [8]; with Pseudomonas aeruginosa [12]) was less than 10 mm in each case. Further, the diameter of the inhibition zone (DIZ) in the test on Staphylococcus aureus [16] and in the test on Aspergillus fumigatus [17] was less than 10 mm each time. Also, the MIC (with Klebsiella pneumoniae [5]; in test [6]; with Talaromyces marneffei [9]; with Escherichia coli [10]; with Aspergillus flavus [11]; with Staphylococcus aureus [13]) was 25 µg/mL (≈ 46.9 µM) each time. Moreover, the MIC with Aspergillus fumigatus [14] and with Pseudomonas aeruginosa [15] was 25 µg/mL (≈ 46.9 µM) throughout. In addition, in [7], the inhibition came to 86%.

In the case of `COc1ccc(C2=NN(c3nc(-c4ccc([N+](=O)[O-])cc4)cs3)C(c3ccc(-c4ccc([N+](=O)[O-])cc4C)o3)C2)cc1OC` (stereo unspecified), the “diameter of the inhibition zone (DIZ)” value (in the test on Klebsiella pneumoniae [1]; in the test with Aspergillus flavus [2]; in test [3]; in the test with Escherichia coli [4]; in the test with Talaromyces marneffei [8]; with Pseudomonas aeruginosa [12]) was 16 mm throughout. In addition, the “diameter of the inhibition zone (DIZ)” value with Staphylococcus aureus [16] and with Aspergillus fumigatus [17] was 16 mm throughout. Further, the MIC (in the test on Klebsiella pneumoniae [5]; in test [6]; with Talaromyces marneffei [9]; against Escherichia coli [10]; with Aspergillus flavus [11]; in the test on Staphylococcus aureus [13]) was 6.25 µg/mL (≈ 10.2 µM) each time. The MIC in the test on Aspergillus fumigatus [14] and with Pseudomonas aeruginosa [15] was 6.25 µg/mL (≈ 10.2 µM) throughout. Also, the inhibition in test [7] amounted to 14%.

For the compound `COc1ccc(C2=NN(c3nc(-c4ccc([N+](=O)[O-])cc4)cs3)C(c3ccc(SC)cc3)C2)cc1` (stereo unspecified), the diameter of the inhibition zone (DIZ) (with Klebsiella pneumoniae [1]; with Aspergillus flavus [2]; in test [3]; in the test with Escherichia coli [4]; in the test with Talaromyces marneffei [8]; in the test on Pseudomonas aeruginosa [12]) was less than 10 mm each time. For the same compound, the diameter of the inhibition zone (DIZ) in the test on Staphylococcus aureus [16] and in the test on Aspergillus fumigatus [17] was less than 10 mm each time. Also, the MIC (in the test with Klebsiella pneumoniae [5]; in test [6]; with Talaromyces marneffei [9]; against Escherichia coli [10]; with Aspergillus flavus [11]; in the test on Staphylococcus aureus [13]) was 25 µg/mL (≈ 49.7 µM) in each case. Moreover, the MIC in the test on Aspergillus fumigatus [14] and in the test with Pseudomonas aeruginosa [15] was 25 µg/mL (≈ 49.7 µM) each time. In addition, the inhibition in test [7] came to 79%.

As to `COc1ccc(C2=NN(c3nc(-c4ccc([N+](=O)[O-])cc4)cs3)C(c3ccc(-c4ccc([N+](=O)[O-])cc4)o3)C2)cc1OC` (stereo unspecified), the “diameter of the inhibition zone (DIZ)” value (in the test with Klebsiella pneumoniae [1]; in the test on Aspergillus flavus [2]; in [3]; with Escherichia coli [4]; in the test on Talaromyces marneffei [8]; with Pseudomonas aeruginosa [12]) was 16 mm throughout. Besides, the “diameter of the inhibition zone (DIZ)” value in the test on Staphylococcus aureus [16] and in the test with Aspergillus fumigatus [17] was 16 mm throughout. In addition, the MIC (in the test with Klebsiella pneumoniae [5]; in test [6]; in the test on Talaromyces marneffei [9]; in the test on Escherichia coli [10]; in the test with Aspergillus flavus [11]; in the test with Staphylococcus aureus [13]) was 6.25 µg/mL (≈ 10.5 µM) each time. For the same compound, the MIC in the test with Aspergillus fumigatus [14] and with Pseudomonas aeruginosa [15] was 6.25 µg/mL (≈ 10.5 µM) throughout. In addition, the inhibition in test [7] was 62%.

Regarding `CSc1ccc(C2CC(c3ccc([N+](=O)[O-])cc3)=NN2c2nc(-c3ccc([N+](=O)[O-])cc3)cs2)cc1` (stereo unspecified), the diameter of the inhibition zone (DIZ) (in the test with Klebsiella pneumoniae [1]; in the test on Aspergillus flavus [2]; in [3]; in the test on Escherichia coli [4]; with Talaromyces marneffei [8]; with Pseudomonas aeruginosa [12]) was less than 10 mm in each case. Further, the diameter of the inhibition zone (DIZ) in the test on Staphylococcus aureus [16] and with Aspergillus fumigatus [17] was less than 10 mm each time. For the same compound, the MIC (in the test with Klebsiella pneumoniae [5]; in test [6]; in the test with Talaromyces marneffei [9]; against Escherichia coli [10]; in the test on Aspergillus flavus [11]; in the test on Staphylococcus aureus [13]) was 25 µg/mL (≈ 48.3 µM) in each case. Besides, the MIC in the test with Aspergillus fumigatus [14] and in the test with Pseudomonas aeruginosa [15] was 25 µg/mL (≈ 48.3 µM) in each case. The inhibition in [7] was determined as 75%.
